Source: US20230286973A1, “PROTEIN SECRETION INHIBITORS” (KEZAR LIFE SCIENCES, priority 2020, published 2023)
pEC50, pIC50: −log10 of the molar value. Like-named read-outs stand apart in the source and are kept apart here.

Assays:
[1] = system: PD1-ss+10aa/Gaussia Luciferase; test: Dox-Induced PD1-ss-Gluc Assay; assay type: cell-based; details: 24 hr Dox induction, 293FRT/TO cells, read-out: 24 hr Dox Inducible PD1ssGluc 293FRT/TO: Mean IC50
Method in brief: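 Flp-In 293 T-REx cells stably carrying a doxycycline-inducible Gaussia luciferase fused to the PD1 signal sequence plus 10 aa were plated the day before. Compound dilutions in DMSO/media containing doxycycline were then added and incubated at 37 °C, 5% CO2. Data for undefined stereochemistry refer to stereoisomer mixtures.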

[2] = system: TNFα-FL/Gaussia Luciferase; test: Dox Induced TNFα-FL-Gluc Assay; assay type: cell-based; details: for pIC50: 24 hr Dox induction, 293FRT/TO cells, read-out: 24 hr Dox Inducible TNFaFLGluc 293FRT/TO: Mean IC50; for 24 hr Dox Inducible TNFaFLGluc 293FRT/TO: TNF/PD1: ratio of TNFaFLGluc IC50 to PD1ssGluc IC50
Method in brief: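 Cell line: stable Flp-In 293 T-REx, TNFα-FL(1-233)-Gaussia luciferase fusion, T-REx-inducible. Plated day -1; compounds in DMSO/media + doxycycline, 37 °C, 5% CO2. Undefined stereocentres = mixture tested.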

[3] = system: HER3-ss+4aa/Gaussia Luciferase; test: Dox-Induced Her3-ss-Gluc Assay; assay type: cell-based; details: 24 hr Dox induction, 293FRT/TO cells, read-out: 24 hr Dox Inducible Her3(ss + 4)Gluc 293FRT/TO: Mean IC50
Method in brief: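 Flp-In 293 T-REx cells, stable HER3-ss+4aa/Gaussia luciferase insert, hygromycin/blasticidin selected; plated day before; compound in DMSO/media + doxycycline; 37° C., 5% CO2.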

[4] = system: IL-2-FL/Gaussia Luciferase; test: Dox Induced IL2-FL-Gluc Assay; assay type: cell-based; details: for pIC50: 24 hr Dox induction, 293FRT/TO cells, read-out: 24 hr Dox Inducible IL2FLGluc 293FRT/TO: Mean IC50; for 24 hr Dox Inducible IL2FLGluc 293FRT/TO: IL2/PD1: ratio of IL2FLGluc IC50 to PD1ssGluc IC50
Method in brief: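 Stable Flp-In 293 T-REx line, Tet-regulated IL-2 (aa 1-153)–Gaussia luciferase fusion; hygromycin/blasticidin selected. Plated day -1; compound + doxycycline added next day; 37° C, 5% CO2.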

[5] = system: multiple myeloma cell line NCI-H929; test: H929 Cell Viability Assay; assay type: cell-based, human; details: Homo sapiens, NCI-H929, 48 h, NCI-H929 cells, Celltiter-Glo
Method in brief: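 Cells in RPMI 1640/10% FBS; compound dilutions in DMSO/media; 48 h, 37° C, 5% CO2; CellTiter-Glo luciferase readout for viability.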

[6] = system: multiple myeloma cell line U266B1; test: U266 Cell Viability Assay; assay type: cell-based, human; details: Homo sapiens, U-266, 48 h, U266B1 cells, Celltiter-Glo
Method in brief: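 Luminescent ATP read-out (CellTiter-Glo) after 48 h compound exposure at 37° C., 5% CO2; cells maintained in RPMI 1640/10% FBS/2 mM glutamine/pen-strep, compounds diluted in DMSO/media.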

[7] = Liver Microsome Stability Assay (rat); details: rat liver microsomes, with NADPH, 1.0 uM compound
Experimental: (§1) Stability of a compound was assessed in the presence of liver microsomes from various sources—mouse, rat, monkey and human liver microsomes. 1.0 uM compound, 0.4% DMSO in 0.1 M Potassium Phosphate with 1.0 mg/mL liver microsomes, were incubated at 37° C. with or without 1 mM NADPH. The samples were quenched at 0, and 30 minutes.

[8] = Liver Microsome Stability Assay (mouse); details: mouse liver microsomes, with NADPH, 1.0 uM compound
Experimental: as §1

[9] = Liver Microsome Stability Assay (human); details: human liver microsomes, with NADPH, 1.0 uM compound
Experimental: as §1

[10] = Liver Microsome Stability Assay (monkey); details: monkey liver microsomes, with NADPH, 1.0 uM compound
Experimental: as §1

[11] = '<=>' given where both are I.A.

Compound	pIC50 [1]	pIC50 [2]	24 hr Dox Inducible TNFaFLGluc 293FRT/TO: TNF/PD1 [2]	pIC50 [3]	pIC50 [4]	24 hr Dox Inducible IL2FLGluc 293FRT/TO: IL2/PD1 [4]	pEC50 [5]	pEC50 [6]	Liver Microsome Stability (Multiple Species): Rat - % Remaining after 30 min w/NADPH [7]	Liver Microsome Stability (Multiple Species): Mouse - % Remaining after 30 min w/NADPH [8]	Liver Microsome Stability (Multiple Species): Human - % Remaining after 30 min w/NADPH [9]	Liver Microsome Stability (Multiple Species): Monkey - % Remaining after 30 min w/NADPH [10]	pIC50 ([1]; mean)	pIC50 ([2]; mean)	24 hr Dox Inducible TNFaFLGluc 293FRT/TO: TNF/PD1 [2, 11]	pIC50 ([3]; mean)	pIC50 ([4]; mean)	24 hr Dox Inducible IL2FLGluc 293FRT/TO: IL2/PD1 [4, 11]
CC(C)c1c(/C=C/c2csc(NC(=O)c3cccn3Cc3ccncc3)n2)ncn1C [Compound B85, (E)-N-(4-(2-(5-isopropyl-1-methyl-1H-imidazol-4-yl)vinyl)thiazol-2-yl)-1-(pyridin-4-ylmethyl)-1H-pyrrole-2-carboxamide]	6.48	< 4.60	>75.9	< 4.60	< 4.60	>76	< 4.60	< 4.60	2.02%	0.8%	1.26%	0.13%	–	–	–	–	–	–
O=C(Nc1nc([C@H]2CCCN2c2ccccc2)cs1)c1cccn1CCC1CCOC1 (stereo partly drawn) [Compound C3, N-(4-((R)-1-phenylpyrrolidin-2-yl)thiazol-2-yl)-1-(2-(tetrahydrofuran-3-yl)ethyl)-1H-pyrrole-2-carboxamide]	–	–	–	–	–	–	4.79	< 4.60	4.35%	9.29%	16%	8.3%	5.95	4.82	13.5	5.64	5.52	2.7
Cc1cccc2nc(/C=C/c3csc(NC(=O)c4cccn4Cc4ccncc4)n3)cn12 [Compound B77, (E)-N-(4-(2-(5-methylimidazo[1,2-a]pyridin-2-yl)vinyl)thiazol-2-yl)-1-(pyridin-4-ylmethyl)-1H-pyrrole-2-carboxamide]	6.31	< 4.60	>50.9	4.94	< 4.60	>51	< 4.60	< 4.60	1.67%	2.21%	1.11%	0.59%	–	–	–	–	–	–
N#Cc1cc(Cn2cccc2C(=O)Nc2nc([C@H]3CCCN3c3ccccc3)cs2)ccn1 [Compound E60, (R)-1-((2-cyanopyridin-4-yl)methyl)-N-(4-(1-phenylpyrrolidin-2-yl)thiazol-2-yl)-1H-pyrrole-2-carboxamide]	–	–	–	–	–	–	4.63	< 4.60	2.04%	6.59%	1.3%	0.19%	6.10	< 4.60	>31.2	5.89	5.77	2.1
CC(=O)NCc1ccc(N2CCC[C@@H]2c2csc(NC(=O)c3cccn3Cc3ccnc(F)c3)n2)cc1 [Compound A64, (R)-N-(4-(1-(4-(acetamidomethyl)phenyl)pyrrolidin-2-yl)thiazol-2-yl)-1-((2-fluoropyridin-4-yl)methyl)-1H-pyrrole-2-carboxamide]	7.97	6.78	15.4	7.71	7.57	2.5	6.69	< 4.60	6.39%	13.7%	1.39%	0.78%	–	–	–	–	–	–
CC(c1ccncc1)n1cccc1C(=O)Nc1nc([C@H]2CCCN2c2ccccc2)cs1 (stereo partly drawn) [Compound E13, N-(4-((R)-1-phenylpyrrolidin-2-yl)thiazol-2-yl)-1-(1-(pyridin-4-yl)ethyl)-1H-pyrrole-2-carboxamide]	–	–	–	–	–	–	5.23	< 4.60	10.1%	1.95%	5.08%	0.67%	7.27	6.08	15.6	6.94	6.74	3.4
NC(=O)N1CCC(Oc2ccc(N3CCC[C@@H]3c3csc(NC(=O)c4cccn4Cc4ccnc(F)c4)n3)cc2)CC1 [Compound A135, (R)-4-(4-(2-(2-(1-((2-fluoropyridin-4-yl)methyl)-1H-pyrrole-2-carboxamido)thiazol-4-yl)pyrrolidin-1-yl)phenoxy)piperidine-1-carboxamide]	7.82	6.29	33.6	7.47	7.28	3.4	6.16	< 4.60	57.9%	56.5%	67.1%	32.1%	–	–	–	–	–	–
O=C(Nc1nc([C@H]2CCCN2c2ccccc2)cs1)c1cccn1Cc1ccncc1Br [Compound E22, (R)-1-((3-bromopyridin-4-yl)methyl)-N-(4-(1-phenylpyrrolidin-2-yl)thiazol-2-yl)-1H-pyrrole-2-carboxamide]	–	–	–	–	–	–	4.92	< 4.60	0.79%	1.4%	11.5%	0.58%	6.89	5.47	26.4	6.66	6.40	3.1
Cc1ocnc1/C=C/c1csc(NC(=O)c2cccn2Cc2ccnc(F)c2)n1 [Compound B47, (E)-1-((2-fluoropyridin-4-yl)methyl)-N-(4-(2-(5-methyloxazol-4-yl)vinyl)thiazol-2-yl)-1H-pyrrole-2-carboxamide]	7.38	4.73	454	5.24	4.84	350	< 4.60	< 4.60	0.41%	30.8%	2.81%	1.45%	–	–	–	–	–	–
